These results are taken from PubChem BioAssay AID210 (DTP/NCI, 2004).

The test has as its system CD2F1 mice, ip Colon 26 adenocarcinoma, median survival T/C. Description: NCI In Vivo Anticancer Drug Screen. Data for tumor model Colon 26 Adenocarcinoma (intraperitoneal) in CD2F1 (CDF1) mice. Particulars: endpoint: median survival time, higher = longer survival. Here is the method:
The antitumor activity of compounds was measured in mice bearing transplantable tumors. Survival or tumor size were measured and the results are expressed as the measurement made in the treated group (T) divided by the measurement made in the vehicle treated control group (C). The tumor model used in this assay is Colon 26 Adenocarcinoma (intraperitoneal) in CD2F1 (CDF1) mice

The mark [1] stands for this setting: dose: 50.0 mg/kg/injection, schedule: Q04DX002 (ip), vehicle: Klucel (hydroxypropylcellulose) (HPC).
[2] abbreviates: dose: 100.0 mg/kg/injection, schedule: Q04DX002 (ip), vehicle: Klucel (hydroxypropylcellulose) (HPC).
Where [3] appears, read: dose: 200.0 mg/kg/injection, schedule: Q04DX002 (ip), vehicle: Klucel (hydroxypropylcellulose) (HPC).
[4] abbreviates: dose: 80.0 mg/kg/injection, schedule: Q04DX003 (ip), vehicle: saline.
Where [5] appears, read: dose: 160.0 mg/kg/injection, schedule: Q04DX003 (ip), vehicle: saline.

Values joined by “and” are separate entries in the source; they are usually repeats but may differ in a detail not shown here. Equal values may be shown once. Toxic doses and inconclusive results are not listed.

On to `CC1CC2OC2/C=C\C=C\C(=O)Cc2c(Cl)c(O)cc(O)c2C(=O)O1` (stereo not given), for which the T/C is, setting by setting: (dose: 12.5 mg/kg/injection, schedule: Q04DX002 (ip), vehicle: Klucel (hydroxypropylcellulose) (HPC)) 94 % of control; (dose: 25.0 mg/kg/injection, schedule: Q04DX002 (ip), vehicle: Klucel (hydroxypropylcellulose) (HPC)) 92 % of control; under setting [1], 99 % of control; under setting [2], 99 % of control; under setting [3], 95 % of control.
On to `CCc1c(CC(=O)O)c2cc(C)ccc2n1Cc1ccc(Cl)cc1`, for which the T/C (dose: 6.25 mg/kg/injection, schedule: Q04DX003 (ip), vehicle: Klucel (hydroxypropylcellulose) (HPC)) is 89 % of control; the T/C (dose: 12.5 mg/kg/injection, schedule: Q04DX003 (ip), vehicle: Klucel (hydroxypropylcellulose) (HPC)) is 95 % of control; the T/C (dose: 25.0 mg/kg/injection, schedule: Q04DX003 (ip), vehicle: Klucel (hydroxypropylcellulose) (HPC)) is 97 % of control; the T/C (dose: 50.0 mg/kg/injection, schedule: Q04DX003 (ip), vehicle: Klucel (hydroxypropylcellulose) (HPC)) is 100 % of control; the T/C (dose: 100.0 mg/kg/injection, schedule: Q04DX003 (ip), vehicle: Klucel (hydroxypropylcellulose) (HPC)) was 111 % of control.
For the molecule `CCC1(O)CC(OC2CC(N(C)C)C(OC3CC(O)C(OC4CCC(=O)C(C)O4)C(C)O3)C(C)O2)c2c(cc3c(c2O)C(=O)c2c(O)ccc(O)c2C3=O)C1C(=O)OC` (stereo not given), the T/C reads like this: (dose: 0.38 mg/kg/injection, schedule: Q04DX003 (ip), vehicle: saline with Tween-80) 103 % of control; (dose: 0.75 mg/kg/injection, schedule: Q04DX003 (ip), vehicle: saline with Tween-80) 117 % of control; (dose: 1.5 mg/kg/injection, schedule: Q04DX003 (ip), vehicle: saline with Tween-80) 123 % of control; (dose: 3.0 mg/kg/injection, schedule: Q04DX003 (ip), vehicle: saline with Tween-80) 108 % of control.
On to `Cc1ccc(S(=O)(=O)N/N=C/C(=O)O)cc1`, for which the T/C is 174 % of control (dose: 12.5 mg/kg/injection, schedule: Q04DX003 (ip), vehicle: saline with Tween-80); 177 % of control (dose: 25.0 mg/kg/injection, schedule: Q04DX003 (ip), vehicle: saline with Tween-80); 212 % of control (dose: 50.0 mg/kg/injection, schedule: Q04DX003 (ip), vehicle: saline with Tween-80); 196 % of control (dose: 100.0 mg/kg/injection, schedule: Q04DX003 (ip), vehicle: saline with Tween-80); 193 % of control (dose: 200.0 mg/kg/injection, schedule: Q04DX003 (ip), vehicle: saline with Tween-80).
Take `COC1=CC(=O)N(C(=O)C2CSC(C(CO)NC(=O)c3csc(/C=N/O)n3)=N2)C1` (stereo not given): the T/C runs as follows: under setting [1], 93 % of control; under setting [2], 105 % of control; under setting [3], 101 % of control; (dose: 400.0 mg/kg/injection, schedule: Q04DX002 (ip), vehicle: Klucel (hydroxypropylcellulose) (HPC)) 105 % of control.
`CC1(CO)C(O)CCC2(C)C1CCC1CC3CC12CCC3(O)CO` (stereo not given): the T/C (dose: 25.0 mg/kg/injection, schedule: Q01DX009 (ip), vehicle: saline with Tween-80) was 167 % of control; the T/C (dose: 50.0 mg/kg/injection, schedule: Q04DX003 (oral), vehicle: saline with Tween-80) was 105 % of control and 106 % of control and 113 % of control; the T/C (dose: 100.0 mg/kg/injection, schedule: Q04DX003 (oral), vehicle: saline with Tween-80) was 101 % of control and 119 % of control and 100 % of control; the T/C (dose: 600.0 mg/kg/injection, schedule: Q04DX003 (ip), vehicle: saline with Tween-80) was 100 % of control; the T/C (dose: 1600.0 mg/kg/injection, schedule: Q04DX003 (oral), vehicle: saline with Tween-80) was 106 % of control.
In the case of `N/C(=N\O)c1cn(C2OC(CO)C(O)C2O)c2ncnc(N)c12` (stereo not given), the T/C runs as follows: (dose: 2.0 mg/kg/injection, schedule: Q04DX003 (ip), vehicle: Klucel (hydroxypropylcellulose) (HPC)) 116 % of control; (dose: 16.0 mg/kg/injection, schedule: Q04DX003 (ip), vehicle: Klucel (hydroxypropylcellulose) (HPC)) 167 % of control.
Turning to `CCC1(O)CC2CN(CCc3c([nH]c4ccccc34)C(C(=O)OC)(c3cc4c(cc3OC)N(C)C3C(O)(C(N)=O)C(O)C5(CC)C=CCN6CCC43C65)C2)C1` (stereo not given) (tested in a mixture with another compound), the T/C reads like this: (dose: 0.13 mg/kg/injection, schedule: Q04DX002 (ip), vehicle: water) 101 % of control; (dose: 0.25 mg/kg/injection, schedule: Q04DX002 (ip), vehicle: water) 103 % of control; (dose: 0.5 mg/kg/injection, schedule: Q04DX002 (ip), vehicle: water) 104 % of control; (dose: 1.0 mg/kg/injection, schedule: Q04DX002 (ip), vehicle: water) 113 % of control; (dose: 2.0 mg/kg/injection, schedule: Q04DX002 (ip), vehicle: water) 118 % of control.
`Nc1n[nH]c(N)n1`: the T/C by setting is: (dose: 40.0 mg/kg/injection, schedule: Q04DX003 (ip), vehicle: saline) 105 % of control; under setting [4], 96 % of control; (dose: 100.0 mg/kg/injection, schedule: Q04DX003 (ip), vehicle: suspension in saline) 95 % of control; under setting [5], 112 % of control; (dose: 200.0 mg/kg/injection, schedule: Q04DX003 (ip), vehicle: suspension in saline) 104 % of control; (dose: 320.0 mg/kg/injection, schedule: Q04DX003 (ip), vehicle: saline) 106 % of control. Moreover, the T/C (dose: 400.0 mg/kg/injection, schedule: Q04DX003 (ip), vehicle: suspension in saline) was 105 % of control; the T/C (dose: 800.0 mg/kg/injection, schedule: Q04DX003 (ip), vehicle: suspension in saline) is 108 % of control; the T/C (dose: 1600.0 mg/kg/injection, schedule: Q04DX003 (ip), vehicle: suspension in saline) was 100 % of control.
Take `N[C@@H](Cc1ccc(N(CCCl)CCCl)cc1)C(=O)O`: the T/C runs as follows: (dose: 1.0 mg/kg/injection, schedule: Q04DX002 (ip), vehicle: suspension in saline) 162 % of control; (dose: 1.25 mg/kg/injection, schedule: Q04DX003 (ip), vehicle: saline) 175 % of control; (dose: 2.0 mg/kg/injection, schedule: Q04DX002 (ip), vehicle: suspension in saline) 231 % of control; (dose: 2.5 mg/kg/injection, schedule: Q04DX003 (ip), vehicle: suspension in saline) 181 % of control; (dose: 4.0 mg/kg/injection, schedule: Q04DX002 (ip), vehicle: suspension in saline) 249 % of control; (dose: 5.0 mg/kg/injection, schedule: Q04DX003 (ip), vehicle: suspension in saline) 186 % of control. Further, the T/C runs as follows: (dose: 8.0 mg/kg/injection, schedule: Q04DX002 (ip), vehicle: suspension in saline) 277 % of control; (dose: 10.0 mg/kg/injection, schedule: Q04DX003 (ip), vehicle: suspension in saline) 182 % of control; (dose: 16.0 mg/kg/injection, schedule: Q04DX002 (ip), vehicle: suspension in saline) 226 % of control; (dose: 20.0 mg/kg/injection, schedule: Q04DX003 (ip), vehicle: suspension in saline) 216 % of control.
In the case of `CC1CC(C)CC(C)C(O)/C(C#N)=C/C=C/CC(C2CCCC2C(=O)O)OC(=O)CC(O)C(C)C1` (stereo not given), the T/C runs as follows: (dose: 0.5 mg/kg/injection, schedule: Q04DX003 (ip), vehicle: saline) 103 % of control; (dose: 1.0 mg/kg/injection, schedule: Q04DX003 (ip), vehicle: saline) 105 % of control; (dose: 2.0 mg/kg/injection, schedule: Q04DX003 (ip), vehicle: saline) 100 % of control.
On to `CCC(=O)O[C@H]1CC[C@H]2[C@@H]3CCC4=CC(=O)CC[C@]4(C)[C@H]3CC[C@]12C`, for which the T/C reads like this: under setting [4], 87 % of control; under setting [5], 96 % of control; (dose: 640.0 mg/kg/injection, schedule: Q04DX003 (ip), vehicle: saline) 86 % of control.
`COC(C(=O)C(O)C(C)O)C1CC2C=C3C=C(OC4CC(OC5CC(O)C(OC)C(C)O5)C(OC(C)=O)C(C)O4)C(C)C(=O)C3=C(O)C2=C(O)C1OC1CC(OC2CC(OC3CC(C)(O)C(O)C(C)O3)C(O)C(C)O2)C(O)C(C)O1` (stereo not given): the T/C is, setting by setting: (dose: 0.5 mg/kg/injection, schedule: Q04DX003 (ip), vehicle: saline with Tween-80) 100 % of control; (dose: 1.0 mg/kg/injection, schedule: Q04DX003 (ip), vehicle: saline with Tween-80) 99 % of control; (dose: 2.0 mg/kg/injection, schedule: Q04DX003 (ip), vehicle: saline with Tween-80) 99 % of control; (dose: 4.0 mg/kg/injection, schedule: Q04DX003 (ip), vehicle: saline with Tween-80) 96 % of control; (dose: 8.0 mg/kg/injection, schedule: Q04DX003 (ip), vehicle: saline with Tween-80) 102 % of control.
